Patent US20020173468A1, “MODIFIED CYTOSTATIC AGENTS” (priority 1996, published 2002)
pIC50: −log10 of the molar value. Several values for one entry are separate records, joined by “and”; a condition that tells them apart may be missing. Identical values can stand only once.

Assays:
[1] = tested on: SW 480 human colonic tumour cell line; assay: Growth inhibition test (MTT) for cytotoxic properties, SW 480; assay type: cell-based; details: SW 480 cells
[2] = tested on: HT 29 human colonic tumour cell line; assay: Growth inhibition test (MTT) for cytotoxic properties, HT 29; assay type: cell-based; details: HT 29 cells
[3] = tested on: mouse bone marrow stem cells; assay: Inhibition of the CSF-induced proliferation of mouse bone marrow stem cells (colony formation); assay type: cell-based; details: recombinant murine GM-CSF, 7 days
Method: 2. Haematopoietic Activity of Conjugates in Comparison with the Basic Active Compound
Bone marrow cells were rinsed from mouse femurs. 10^5 cells were incubated in McCoy 5A medium (0.3% agar) together with recombinant murine GM-CSF (Genzyme; stem cell colony formation) and the substances (10^−4 to 100 μg/ml) at 37° C. and 7% CO2. 7 days later, the colonies ([…]50 cells) and clusters (17-50 cells) were counted.

[4] = tested on: large-cell human lung tumour xenograft LXFL 529; assay: In-vivo inhibition of tumour growth in the nude mouse model; parameters: species or system athymic nude mice (NMRI nu/nu strain); details: for Relative tumour volume on day 21: control 1137; for Survival time: individual animals
Source text: 3. In-vivo Inhibition of Tumour Growth in the Nude Mouse Model
For all in-vivo experiments for investigation of the inhibition of tumour growth, athymic nude mice (NMRI nu/nu strain) were used. The selected large-cell lung carcinoma LXFL 529 was developed by serial passage in nude mice. The human origin of the tumour was confirmed by isoenzymatic and immunohistochemical methods.
The tumour was implanted subcutaneously in both flanks of nu/nu nude mice 6 to 8 weeks old. The treatment was started, depending on the doubling time, as soon as the tumours had reached a diameter of 5-7 mm. The mice were assigned to the treatment group and to the control group (5 mice per group with 8-10 assessable tumours) by randomization. The individual tumours of the control group all grew progressively.
The size of the tumours was measured in two dimensions by means of a slide gauge. The tumour volume, which correlated well with the cell count, was then used for all evaluations. The volume was calculated according to the formula “length×breadth×breadth/2” ([a×b^2]/2, a and b represent two diameters arranged at right angles).
The values of the relative tumour volume (RTV) were calculated for each individual tumour by dividing the tumour size on day X by the tumour size on day 0 (at the time of randomization). The mean values of the RTV were then used for further evaluation.
The inhibition of the increase in the tumour volume (tumour volume of the test group/control group, T/C, in per cent) was the final measured value.
The administration of the compounds was carried out intraperitoneally (i.p.) on days 1, 2 and 3 after randomization.

[5] = tested on: B16F10 mouse melanoma cell line; assay: Growth inhibition test (MTT) for cytotoxic properties, B16F10; assay type: cell-based; details: B16F10 cells
[6] = 6.25 mg/kg/day (MTD) i.p. days 1-3

CC[C@@]1(OC(=O)[C@@H](NC(=O)[C@H](CCCCN)NC(=S)Nc2ccc(O)cc2)C(C)C)C(=O)OCc2c1cc1n(c2=O)Cc2cc3ccccc3nc2-1.Cl [Example 4.4), 20-O-[N^α-(4-Hydroxy-phenylamino-thiocarbonyl)-lysyl-valyl]-camptothecin, hydrochloride]
pIC50 [1]: 6.52 | pIC50 [2]: 6.70 | IC50, inhibition of the CSF-induced proliferation of mouse bone marrow stem cells [3]: 0.01 µg/mL | Relative body weight on day 21 ([4]; 3.125 mg/kg/day i.p. days 1-3): 105.8 % of day 0 | Relative tumour volume on day 21 ([4]; 3.125 mg/kg/day i.p. days 1-3): 69.5 % of day 0 | Survival time ([4]; 3.125 mg/kg/day i.p. days 1-3): >43 >43 days | Relative body weight on day 21 [4, 6]: 113.0 % of day 0 | Relative tumour volume on day 21 [4, 6]: 0.2 % of day 0 | Survival time ([4]; 6.25 mg/kg/day (MTD) i.p. days 1-3, hydrochloride): 7 days and > 43 days and >43 >43 days | Maximum tolerable dose (MTD) ([4]; i.p. on days 1, 2 and 3, nude mice): 6.25 mg/kg/day | Therapeutic efficacy against LXFL 529 xenograft (in words) ([4]; therapy at the MTD and at half the MTD): tumour remission | pIC50 [5]: 6.22
